The subject of one data set is NOS2. The experiment in a line: Pulmonary cGMP levels after endotoxin challenge. Conditions: wild-type mice 7 hours after endotoxin challenge; L-NIL 5 mg/kg intraperitoneally; data not shown. Format: in vivo, mouse.
Data set [1] relates to hypoxic pulmonary vasoconstriction (HPV) in mice. The experiment in a line: Redistribution of pulmonary blood flow (QLPA/QPA) after left mainstem bronchus occlusion (LMBO), murine HPV model. Format: in vivo, mouse. On the procedure: Group 3: endotoxin-treated+L-NIL. SV129/B6F1 wild-type mice (n=5) were injected intraperitoneally with 10 mg/kg E. coli 011B4 endotoxin dissolved in 0.2 mL saline. Three hours after the endotoxin challenge, mice were treated with L-NIL 5 mg/kg intraperitoneally. Studies were performed 22 hours after the endotoxin challenge. In additional SV129/B6F1 mice with (n=5) and without (n=4) a prior challenge of endotoxin (22 hours earlier), the acute response to an intravenous bolus of 5 mg/kg L-NIL administered during LMBO, was studied.
Group 4: prolonged exposure to 4 or 40 ppm NO. Saline-treated SV129 wild-type mice (n=5) and NOS2-deficient mice (n=5) breathed 40 ppm NO in air for 22 hours and were studied 1 hour after discontinuation of NO inhalation. SV129 wild-type mice (n=5) and NOS2-deficient mice (n=5) breathed 40 ppm NO in air for 22 hours after challenge with 10 mg/kg endotoxin intraperitoneally and were studied 1 hour after discontinuation of NO inhalation. Additional NOS2-deficient mice (n=4) breathed 4 ppm of NO in air for 22 hours after challenge with 10 mg/kg endotoxin intraperitoneally and were studied 1 hour after discontinuation of NO inhalation.
Experimental preparation. Mice were anesthetized by intraperitoneal injection of ketamine (0.1 mg/g body weight [bw]). Tracheostomy and arterial catheterization were performed as described previously (Steudel et al., 1997, Circ. Res. 81:34-41). A custom-made endotracheal tube (22G Angiocath; Becton Dickinson Healthcare Systems, Sandy, Utah, USA), combined with a 2 French Fogarty arterial embolization catheter (Baxter Healthcare Corp., Irvine, Calif., USA) was inserted into the trachea, with the balloon tip of the Fogarty catheter initially remaining in the trachea. Volume-controlled ventilation was initiated at a respiratory rate of 110-120 breaths per minute, at FiO2 1.0, a peak inspiratory pressure of 13 cm H2O, and a positive end-expiratory pressure level of 2-3 cm H2O. A right parasternal thoracotomy was performed, and a small-vessel ultrasonic flow probe (1RB; Transonic Instruments, Ithaca, N.Y.) was placed around the right pulmonary artery and fixed in position using a micromanipulator (X-tra Hand; TechniTool, Plymouth, Pa.). A 4-0 silk suture was positioned around the left main pulmonary artery to allow transient vascular occlusion. A pulmonary artery catheter (PE10) was inserted into the main pulmonary artery by direct puncture. In other experiments, a lower thoracic aortic flow probe was placed as reported previously (Steudel et al., supra).
Blood flow and pressure measurements. Mean systemic arterial pressure (PSA), mean pulmonary artery pressure (PPA), and in some studies PLA, were continuously monitored using biomedical amplifiers (Hewlett Packard 8805C, Palo Alto, Calif.; Siemens Sirecust 960, Danvers, Mass.). Mean lower thoracic aortic flow (QLTAF) and right pulmonary artery flow (QRPA) were measured with small vessel flow probes connected to a flowmeter (T106; Transonic Instruments). In some experiments, left ventricular end-diastolic pressure was measured with a 1.4 Fr. Millar catheter. The catheter was advanced through the right carotid artery into the left ventricle. […] All monitoring equipment was calibrated before each experiment.
Differential measurement of left and right pulmonary artery flow. To assess the contribution of QRPA and left pulmonary artery flow (QLPA) to total pulmonary artery flow (QPA), transient occlusion (90 seconds) of the left pulmonary artery (QLPA) was performed. QRPA during acute left pulmonary artery occlusion was considered to be QPA (i.e., cardiac output) and correlated closely (r2=0.88; y=0.95x+0.38; n=9) with QLTAF. QLPA was calculated as the difference between QRPA during left pulmonary artery occlusion (QPA) and QRPA with a patent left pulmonary artery (QLPA=QPA−QRPA). Absolute values of respective flows were recorded, and the fractional distribution of flow to the right and left lungs (QRPA/QPA and QLPA/QPA) was calculated. […]

Setting [2] is: saline-treated wild-type mice, L-NIL 5 mg/kg intravenously after LMBO.

The structures appear in SMILES notation.

On to `CC(=N)NCCCC[C@H](N)C(=O)O` [L-NIL], for which the “increase in pulmonary cGMP levels” value in the data set on NOS2 was “sufficient to prevent the increase in pulmonary cGMP levels”. In data set [1] (endotoxin-challenged (10 mg/kg i.p.) wild-type mice treated with L-NIL 5 mg/kg intraperitoneally 3 hours later, studied 22 hours after endotoxin), the “reduction of QLPA/QPA after LMBO” value came to 53±10%. Also, in data set [1] (setting [2]), the “all other hemodynamic parameters after L-NIL injection” value is on record as “did not change” and the “reduction of QLPA/QPA during LMBO after acute L-NIL” value was found to be 56±3%. Further, the “reduction of QLPA/QPA during LMBO after acute L-NIL” value in data set [1] (wild-type mice treated with endotoxin 22 hours earlier, L-NIL 5 mg/kg intravenously after LMBO) is 24±18%.
